Experimental findings from patent US8455475B2 (Gruenenthal GmbH, priority 2009, dated 2013) are described below.

In experiment [1] the target is T1, rat B1R (bradykinin receptor 1) (Rattus norvegicus, UniProt P97583).
T1 construct: expressed in transfected cells; host or cells: CHO K1 cells
T1 sequence (P97583 1-337): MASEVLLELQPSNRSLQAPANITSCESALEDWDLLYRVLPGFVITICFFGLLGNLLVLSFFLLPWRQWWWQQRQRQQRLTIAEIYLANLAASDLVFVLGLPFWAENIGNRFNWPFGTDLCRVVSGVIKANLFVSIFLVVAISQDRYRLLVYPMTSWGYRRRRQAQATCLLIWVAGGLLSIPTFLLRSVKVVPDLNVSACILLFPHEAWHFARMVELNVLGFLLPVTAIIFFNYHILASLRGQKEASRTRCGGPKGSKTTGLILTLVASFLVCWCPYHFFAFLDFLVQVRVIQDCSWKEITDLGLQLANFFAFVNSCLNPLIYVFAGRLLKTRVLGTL
Briefly: FLIPR Ca2+ assay (Fluo-4) on CHO K1 cells stably transfected with the B1R gene of the rat (rB1R cells): % inhibition at 10 μM / IC50, agonist Des-Arg9-bradykinin. The following applies: for inhibition at 10 µM: CHO-K1, rat B1R. In kind it is cell-based. Put shortly: (§1)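 Stable CHO K1 lines, Fluo-4 dye, probenecid-containing buffer. Cpd 10 μM or dose range, 10–20 min, then EC80 agonist (h: Lys-Des-Arg9-BK; r: Des-Arg9-BK). Readout peak FC; % inhibition vs max; IC50 from n=2–3, N≥2.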

In experiment [2] the target is T2, human B1R (bradykinin receptor 1) (Homo sapiens, UniProt P46663).
T2 construct: expressed in transfected cells; host or cells: CHO K1 cells
T2 sequence (P46663 1-353): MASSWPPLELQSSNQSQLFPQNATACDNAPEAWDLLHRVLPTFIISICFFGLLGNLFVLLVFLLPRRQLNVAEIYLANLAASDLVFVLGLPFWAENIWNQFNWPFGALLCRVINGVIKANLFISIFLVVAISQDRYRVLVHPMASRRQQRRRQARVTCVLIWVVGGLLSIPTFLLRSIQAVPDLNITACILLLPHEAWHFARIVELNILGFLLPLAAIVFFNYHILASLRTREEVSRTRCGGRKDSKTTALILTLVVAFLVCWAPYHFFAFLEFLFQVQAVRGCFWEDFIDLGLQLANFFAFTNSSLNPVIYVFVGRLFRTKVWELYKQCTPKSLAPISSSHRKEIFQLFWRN
The experiment can be described thus: FLIPR Ca2+ assay (Fluo-4) on CHO K1 cells stably transfected with the human B1R gene (hB1R cells): % inhibition at 10 μM / IC50, agonist Lys-Des-Arg9-bradykinin. As to conditions: for inhibition at 10 µM: CHO-K1, human B1R. Format: cell-based. In outline: as §1

With `COc1cc(C)c(S(=O)(=O)NC2CCc3ccc(C(=O)N4CCC5(CC4)CCN(c4ccncc4)CC5)cc32)c(C)c1` (stereo not drawn) [Ind_CC-001, 4-methoxy-2,6-dimethyl-N-[6-(9-pyridin-4-yl-3,9-diazaspiro[5.5]undecane-3-carbonyl)-2,3-dihydro-1H-inden-1-yl]-benzenesulfonic acid amide], the inhibition (commonly the relative decrease from the control value, in per cent) at 10 µM came to 98% in experiment [1] and 99% in experiment [2].
For the compound `O=C(NC1CCc2ccc(C(=O)N3CCC4(CC3)CCN(c3ccncc3)CC4)cc21)c1ccc(F)cc1Cl` (stereo not drawn) [IND_CC-262, 2-Chloro-4-fluoro-N-[6-(9-pyridin-4-yl-3,9-diazaspiro[5.5]undecane-3-carbonyl)-2,3-dihydro-1H-inden-1-yl]-benzamide], the inhibition at 10 µM worked out at 105% in experiment [1] and 100% in experiment [2].
The matching figures for `Cc1ncccc1C(=O)N[C@@H]1CCc2ccc(C(=O)N3CCC4(CCN(c5ccncc5)CC4)C3)cc21` [Example H-114, 2-Methyl-N-[(1R)-6-(8-pyridin-4-yl-3,8-diazaspiro[4.5]decane-3-carbonyl)-2,3-dihydro-1H-inden-1-yl]-pyridine-3-carboxylic acid amide]: 102% and 100%.
Consider `O=C(NC1CCc2ccc(C(=O)N3CCC4(CC3)CCN(c3ccncc3)CC4)cc21)c1ccccc1Cl` (stereo not drawn) [Ind_CC-095, 2-chloro-N-[6-(9-pyridin-4-yl-3,9-diazaspiro[5.5]undecane-3-carbonyl)-2,3-dihydro-1H-inden-1-yl]-benzamide], for which the “% Inhibition (rat B1R) at 10 μM” value in experiment [1] was 99%. Also, the “% Inhibition (human B1R) at 10 μM” value in experiment [2] is on record as 99%.
Take `O=C(c1ccc2c(c1)CC[C@@H]2N1Cc2cccc(Cl)c2C1=O)N1CCC2(CC1)CCN(c1ccncc1)CC2` [Example H-158, 7-Chloro-2-[(1S)-5-(9-pyridin-4-yl-3,9-diazaspiro[5.5]undecane-3-carbonyl)-2,3-dihydro-1H-inden-1-yl]-2,3-dihydro-isoindol-1-one]: the values for the inhibition at 10 µM in experiment [1] and in experiment [2] were 100% and 92%, respectively.
The matching figures for `Cc1ccccc1C(=O)N[C@@H]1CCc2ccc(C(=O)N3CCC4(CCN(c5ccncc5)CC4)C3)cc21` [Example H-53, 2-Methyl-N-[(1R)-6-(8-pyridin-4-yl-3,8-diazaspiro[4.5]decane-3-carobnyl)-2,3-dihydro-1H-inden-1-yl]-benzamide]: 104% and 100%.
On to `COc1cc(C)c(C(=O)NC2CCc3ccc(C(=O)N4CCC5(CC4)CCC(c4ccc(F)cc4)(N(C)C)CC5)cc32)c(C)c1` (stereo not drawn) [Ind_CC-093, N-[6-[9-dimethylamino-9-(4-fluorophenyl)-3-azaspiro[5.5]undecane-3-carbonyl]-2,3-dihydro-1H-inden-1-yl]-4-methoxy-2,6-dimethyl-benzamide], for which the inhibition at 10 µM in experiment [1] was 74%; in experiment [2] it was 34%.
Take `COc1cc(C)c(S(=O)(=O)NC2CCc3ccc(C(=O)N4CCC5(CC4)CCN(c4ccncc4)CC5)cc32)c(C)c1` (stereo not drawn) [Example H-03, 4-methoxy-2,6-dimethyl-N-[6-(9-pyridin-4-yl-3,9-diazaspiro[5.5]undecane-3-carbonyl)-2,3-dihydro-1H-inden-1-yl)-benzenssulfonic acid amide]: the “% Inhibition (rat B1R) at 10 μM” value in experiment [1] was determined as 104%. The “% Inhibition (human B1R) at 10 μM” value in experiment [2] was found to be 98%.
`O=C(NC1CCc2ccc(C(=O)N3CCC4(CCN(c5ccc6cnccc6c5)CC4)C3)cc21)c1ccccc1Cl` (stereo not drawn) [Example H-50, 2-chloro-N-[6-(8-isoquinolin-6-yl-3,8-diazaspiro[4.5]decane-3-carbonyl)-2,3-dihydro-1H-inden-1-yl]-benzamide]: the inhibition at 10 µM in experiment [1] and in experiment [2] was 98% each time.
Turning to `O=C(NC1CCc2ccc(C(=O)N3CCC4(CC3)CCN(c3ccncc3)C4)cc21)c1cc(F)c(F)cc1Cl` (stereo not drawn) [IND_CC-229, 2-Chloro-4,5-difluoro-N-[6-(2-pyridin-4-yl-2,8-diazaspiro[4.5]decane-8-carbonyl)-2,3-dihydro-1H-inden-1-yl]-benzamide], the inhibition at 10 µM was determined as 102% in experiment [1] and 100% in experiment [2].
The matching figures for `O=C(c1ccc2c(c1)C(N(C(=O)c1ccccc1Cl)C1CC1)CC2)N1CCC2(CC1)CCN(c1ccncc1)CC2` (stereo not drawn) [Ind_CC-113, 2-chloro-N-cyclopropyl-N-[6-(9-pyridin-4-yl-3,9-diazaspiro[5.5]undecane-3-carbonyl)-2,3-dihydro-1H-inden-1-yl]-benzamide]: 100% and 98%.
With `CN(C(=O)c1ccccc1Cl)C1CCc2ccc(C(=O)N3CCC4(CC3)CCN(c3ccncc3)CC4)cc21` (stereo not drawn) [IND_CC-272, 2-Chloro-N-methyl-N-[6-(9-pyridin-4-yl-3,9-diazaspiro[5.5]undecane-3-carbonyl)-2,3-dihydro-1H-inden-1-yl]-benzamide], the “% Inhibition (rat B1R) at 10 μM” value in experiment [1] is given as 107%. For the same compound, the “% Inhibition (human B1R) at 10 μM” value in experiment [2] is 99%.
For `Cc1ccc(F)c(C(=O)NC2CCc3ccc(C(=O)N4CCC5(CC4)CCN(c4ccncc4)C5)cc32)c1Cl` (stereo not drawn) [IND_CC-215, 2-Chloro-6-fluoro-3-methyl-N-[6-(2-pyridin-4-yl-2,8-diazaspiro[4.5]decane-8-carbonyl)-2,3-dihydro-1H-inden-1-yl]-benzamide], the inhibition at 10 µM was 103% in experiment [1] and 48% in experiment [2].
Turning to `Cc1ccc2n1C(=O)N([C@@H]1CCc3ccc(C(=O)N4CCC5(CCN(c6ccncc6)CC5)C4)cc31)C2` [Example H-134, 5-Methyl-2-[(1R)-6-(8-pyridin-4-yl-3,8-diazaspiro[4.5]decane-3-carbonyl)-2,3-dihydro-1H-inden-1-yl]-1,2-dihydro-pyrrolo[2.1-e]imidazol-3-one], the values for the inhibition at 10 µM in experiment [1] and in experiment [2] were 103% and 99%, respectively.
For `O=C(N[C@@H]1CCc2ccc(C(=O)N3CCC4(CCN(c5ccncc5)CC4)C3)cc21)c1cccc(F)c1Cl` [Example H-153, 2-Chloro-3-fluoro-N-[(1R)-6-(8-pyridin-4-yl-3,8-diazaspiro[4.5]decane-3-carbonyl)-2,3-dihydro-1H-inden-1-yl]-benzamide], the inhibition at 10 µM in experiment [1] came to 105%; in experiment [2], 99%.
The matching figures for `O=C(N[C@H]1CCc2c(C(=O)N3CCC4(CC3)CCN(c3ccncc3)CC4)cccc21)c1ccccc1Cl` [Example H-163, 2-Chloro-N-[(1S)-4-(9-pyridin-4-yl-3,9-diazaspiro[5.5]undecane-3-carbonyl)-2,3-dihydro-1H-inden-1-yl]-benzamide]: 105% and 63%.
For `O=C(NC1CCc2ccc(C(=O)N3CCC4(CC3)CCN(c3ccncc3)CC4)cc21)c1ccc(Cl)cc1Cl` (stereo not drawn) [Ind_CC-006, 2,4-dichloro-N-[6-(9-pyridin-4-yl-3,9-diazaspiro[5.5]undecane-3-carbonyl)-2,3-dihydro-1H-inden-1-yl]-benzamide] the same measures were 98% and 98%.
As to `CC1(C)CC(NC(=O)Cc2ccccc2Cl)c2cc(C(=O)N3CCC4(CC3)CCN(c3ccncc3)CC4)ccc21` (stereo not drawn) [Ind_CC-053, 2-(2-chlorophenyl)-N-[3,3-dimethyl-6-(9-pyridin-4-yl-3,9-diazaspiro[5.5]undecane-3-carbonyl)-1,2-dihydro-inden-1-yl]-acetamide], the inhibition at 10 µM in experiment [1] turned out to be 103%; in experiment [2], 99%.
